What all share (test): NCI anticancer screen, dose series, 48 h
Assay [1] relates to OVCAR-5 ovarian.
Assay [2] deals with IGROV1 ovarian.
For assay [3], the system named is COLO 205 colon.
Assay [4] deals with HCT-116 colon.
The subject of assay [5] is HL-60(TB) leukemia.
The subject of assay [6] is SK-MEL-28 melanoma.
Assay [7] relates to MDA-MB-231 breast.
Assay [8] concerns NCI-H226 lung.
For assay [9], the system named is SNB-19 CNS.
Assay [10] concerns K-562 leukemia.
Assay [11] deals with CAKI-1 renal.
For assay [12], the system named is LOX IMVI melanoma.
Assay [13] deals with MOLT-4 leukemia.
Assay [14] deals with PC-3 prostate.
The test system of assay [15] is EKVX NSCLC.
The test system of assay [16] is A498 renal.
Assay [17] has as its system UACC-257 melanoma.
Assay [18] deals with RPMI-8226 leukemia.
Assay [19] concerns HOP-62 NSCLC.

Here are results for twelve compounds from PubChem BioAssay (NCI).

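Assay format: 96-well plates, 48-hour exposure. TGI: concentration producing complete growth inhibition.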

Regarding `CCC(C#N)NCc1ccc(CNC(C#N)CC)cc1` (configuration not stated), the TGI in assay [1], in assay [2], in [3], in assay [4], in [5] and in assay [6] was > 100 µM each time. In addition, the TGI in assay [7], in assay [8], in assay [9], in assay [10], in [11] and in [12] was > 100 µM in each case. Also, the TGI in assay [13], in assay [14], in assay [15], in assay [16] and in [17] was > 100 µM in each case.

Take `O=C(c1ccc(-c2ccccc2)cc1)N(Cc1cccnc1)C(=S)N(Cc1cccnc1)C(=O)c1ccc(-c2ccccc2)cc1`: the TGI in [1] is > 100 µM; in assay [3], > 100 µM; in assay [4] it was > 100 µM; in [5], > 100 µM; in assay [18], 72.4 µM; in assay [6], > 100 µM. The TGI in [7], in assay [8], in [9], in assay [10], in assay [11] and in [12] was > 100 µM in each case. Further, the TGI in [14], in assay [19], in assay [15], in assay [16] and in assay [17] was > 100 µM throughout.

For `COc1cc2c(NCCN(C)C)nc3c4cc5c(cc4ccc3c2cc1OC)OCO5`, the TGI in [1] stood at 6.71 µM; in assay [2], 5.82 µM; in assay [3], 5.82 µM; in assay [4] it was 6.77 µM; in assay [5] it was 9.52 µM; in [18], 17.2 µM. The TGI in assay [6] was determined as 9.16 µM; in assay [7], 9.05 µM; in [8], 8.18 µM; in assay [9], 7.15 µM; in assay [10], 7.49 µM; in assay [11], 5.88 µM. Besides, the TGI in assay [13] was determined as 5.3 µM; in assay [14] it was 8.7 µM; in assay [19] it was 7.09 µM; in assay [15] it was 8.25 µM; in assay [16] it was 5.86 µM; in assay [17], 7.98 µM.

With `COC1CC(=O)C2C(=O)N(c3ccccc3)C(=O)C23C(C(=O)c2ccccc2)=C(C)NC13O` (configuration not stated), the TGI in assay [1] stood at 54.5 µM; in assay [2], 27.5 µM; in assay [3] it was 25.1 µM; in assay [4] it was 22.6 µM; in assay [18], 21.3 µM; in [6], 23.6 µM. The TGI amounted to 40 µM in [7]; 51.1 µM in assay [9]; 0.21 µM in assay [10]; 22.1 µM in [11]; 28.9 µM in [12]; 34.5 µM in assay [14]. For the same compound, the TGI turned out to be 41.9 µM in [19], 59.9 µM in [15], 47.7 µM in assay [16] and 56.2 µM in assay [17].

In the case of `COc1c(N2CCCCC2)c2c(=O)c3ccccc3oc2c2cc(C)oc12`, the TGI is > 100 µM in assay [1]; 18.3 µM in [3]; 22.6 µM in assay [4]; 58 µM in assay [5]; 50.3 µM in assay [18]; > 100 µM in assay [6]. The TGI is 44.2 µM in assay [7]; 45.4 µM in assay [8]; > 100 µM in assay [9]; > 100 µM in assay [10]; 37.3 µM in assay [11]; 86.5 µM in assay [12]. Further, the TGI was > 100 µM in assay [13]; 51.5 µM in [14]; > 100 µM in assay [19]; 89.1 µM in assay [15]; 61.6 µM in assay [16]; > 100 µM in assay [17].

In the case of `CC(=O)N(CN1C(=O)CCC1C(=O)O)c1ccc(C)cc1` (configuration not stated), the TGI in assay [1], in assay [2], in [3], in assay [4], in assay [5] and in assay [18] was > 100 µM in each case. Besides, the TGI in assay [6], in [7], in [8], in [9], in assay [10] and in assay [11] was > 100 µM throughout. Also, the TGI in [12], in [13], in assay [14], in assay [19], in assay [15] and in [16] was > 100 µM throughout. Moreover, the TGI in assay [17] was > 100 µM.

For `O=C1CCN=C(NC(=O)C(F)(F)F)N1CCc1c[nH]c2ccccc12`, the TGI in [1], in [2], in assay [3], in assay [4], in [5] and in assay [18] was > 100 µM throughout. The TGI in [6], in assay [7], in assay [8], in assay [9], in assay [10] and in assay [11] was > 100 µM throughout. The TGI in [12], in [13], in [14], in [19], in assay [15] and in assay [16] was > 100 µM throughout. Moreover, in [17], the TGI was > 100 µM.

Turning to `Clc1ccc(C2ON=C(c3ccccc3)N2C23CC4CC(CC(C4)C2)C3)cc1Cl` (configuration not stated), the TGI in assay [1], in assay [2], in assay [3], in assay [4], in assay [18] and in assay [6] was > 10 µM each time. Further, the TGI in [7], in [8], in assay [9], in [10], in assay [11] and in assay [12] was > 10 µM in each case. Also, the TGI in [13], in assay [14], in [19], in [15], in [16] and in [17] was > 10 µM each time.

As for `CC(=O)Oc1c(C)cc2c(c1C)C(C)(C)CN2C(=O)C(C)(C)C`, the TGI in [1], in [2], in [3], in [4], in [5] and in assay [18] was > 100 µM throughout. Further, the TGI in assay [6], in assay [7], in assay [8], in assay [9], in assay [10] and in [12] was > 100 µM each time. The TGI in [13], in [14], in assay [19], in assay [15], in assay [16] and in assay [17] was > 100 µM in each case.

Regarding `COc1cccc([C@@H]2C/C(=N\NC(=O)C(=O)N[C@@H](C)c3ccccc3)c3cc4c(cc3N2)OCO4)c1`, the TGI in assay [1] is > 100 µM; in [3], 68.8 µM; in assay [4], > 100 µM; in assay [18], > 100 µM; in [6], > 100 µM; in assay [7], > 100 µM. In addition, the TGI in assay [8], in [9], in assay [10], in [11], in assay [12] and in assay [13] was > 100 µM in each case. In addition, the TGI in assay [14], in assay [19], in [15], in [16] and in assay [17] was > 100 µM throughout.

For the compound `CCCCC1CCCCCCc2[nH]c(/C=C3\N=C(c4ccc[nH]4)C=C3OC)cc21` (configuration not stated), the TGI is 2 µM in assay [1]; 1.29 µM in assay [2]; 1.39 µM in [3]; 0.0531 µM in assay [4]; 0.0103 µM in assay [5]; 0.226 µM in [18]. Moreover, the TGI in assay [6] was determined as 0.492 µM; in assay [7], 1.76 µM; in assay [8] it was 3.27 µM; in assay [9] it was 8.65 µM; in assay [10] it was 1.28 µM; in assay [11] it was 4.32 µM. Moreover, the TGI came out at 0.0443 µM in assay [13]; 2.09 µM in [14]; 0.94 µM in assay [19]; 1.73 µM in [15]; 1.86 µM in assay [16]; 2.73 µM in [17].

For `CCOC(=O)CCC(NC(=O)C(CCC(=O)OCC)NC(=O)C(Cc1ccc([N+](=O)[O-])cc1)NC(C)=O)C(=O)NNC(=O)OC(C)(C)C` (configuration not stated), the TGI in [1], in [2], in assay [3], in [4], in assay [5] and in [18] was > 100 µM throughout. The TGI in assay [6], in [7], in [8], in [9], in assay [10] and in assay [13] was > 100 µM in each case. In addition, the TGI in assay [14], in assay [19], in assay [15], in assay [16] and in assay [17] was > 100 µM throughout.
